# Test results: patent publication US12679878B2, “CRF2 receptor agonists and their use in therapy” (SANOFI, priority 2020, dated 2026)
# Starred links: 1 amine or outer side, 2 acyl side, 3 side chain; linkers in the order of their positions; H or OH if unused. Residues, ends and D or L forms follow the SMILES beside them. Groups on a side chain read outwards from the residue. *: point of attachment. C18 diacid = O=C(O)CCCCCCCCCCCCCCCCC(=O)*; γGlu = O=C(O)[C@H](CCC(=O)[*:2])N[*:1]; AEEA = NCCOCCOCC(=O)O
# Target: T1, human CRF2α receptor (Homo sapiens, UniProt Q13324)
# T1 construct: expressed in transfected cells; host or cells: TeloHEAC
# T1 sequence (Q13324 1-411): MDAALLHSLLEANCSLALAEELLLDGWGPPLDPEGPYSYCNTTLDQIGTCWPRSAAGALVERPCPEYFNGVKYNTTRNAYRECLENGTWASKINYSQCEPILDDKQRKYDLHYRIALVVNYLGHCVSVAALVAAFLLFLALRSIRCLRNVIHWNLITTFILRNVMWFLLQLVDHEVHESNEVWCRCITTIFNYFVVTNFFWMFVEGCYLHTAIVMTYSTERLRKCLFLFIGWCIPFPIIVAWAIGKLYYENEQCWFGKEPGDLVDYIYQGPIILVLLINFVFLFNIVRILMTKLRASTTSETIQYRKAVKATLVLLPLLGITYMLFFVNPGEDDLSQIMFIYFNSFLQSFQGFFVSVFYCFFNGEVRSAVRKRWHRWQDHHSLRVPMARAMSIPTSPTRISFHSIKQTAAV
# Assay: cAMP agonism at human CRF2 α receptor in TeloHEAC cells (Example 7)
# Format: cell-based
# Details: cAMP HTRF, TeloHEAC cells stably expressing human CRF2 α, 0% HSA; read-out: EC50 [nM], 0% HSA
# Protocol: Agonism of compounds for human corticotropin-releasing factor 2α (CRF2 α receptor) was determined by functional assays measuring CAMP response of a TeloHEAC cell line stably expressing human CRF2 α receptor.
# Cells were grown in a T175 culture flask placed at 37° C. to near confluence in medium (DMEM/10% FBS) and collected in 2 ml vials in cell culture medium containing 10% DMSO in a concentration of 10-50 million cells/ml. Each vial contained 1.8 ml cells. The vials were slowly frozen to −80° C. in isopropanol and then transferred in liquid nitrogen for storage. Prior to use, frozen cells were thawed quickly at 37° C. and washed (5 min at 900 rpm) with 20 ml cell buffer (1×HBSS; 20 mM HEPES; 0% or 0.1% HSA). Cells were resuspended in assay buffer (cell buffer plus 2 mM IBMX) and adjusted to a cell density of 1 million cells/ml. For measurement, 5 μl cells (final […]) and 5 μL of test compound were added to a 384-well plate, followed by incubation for 30 minutes at room temperature.
# The CAMP content of cells was determined using a kit from Cisbio Corp. (cat. no. 62AM4PEC) based on HTRF (Homogenous Time Resolved Fluorescence). After addition of HTRF reagents diluted in lysis buffer (kit components), the plates were incubated for 1 h, followed by measurement of the fluorescence ratio at 665/620 nm. The percent activity value (E %) was calculated by setting 1000 nM of urocortin 2 (UCN2) as 100%. The in vitro potency of the compounds was quantified by determining the concentrations that caused 50% activation of maximal response (EC50).
row,EC50 [nM],Structure (SMILES)
1,6.88,CC[C@H](C)[C@H](NC(=O)[C@H](CCC(N)=O)NC(=O)[C@H](CCCCN)NC(=O)[C@H](CC(N)=O)NC(=O)[C@@H](NC(=O)[C@H](CCCCN)NC(=O)[C@H](C)NC(=O)[C@H](CCCCN)NC(=O)[C@H](CCC(N)=O)NC(=O)[C@H](CCCNC(=N)N)NC(=O)[C@H](CCC(N)=O)NC(=O)[C@H](CCCCN)NC(=O)[C@H](CCCCN)NC(=O)[C@H](CCC(N)=O)NC(=O)[C@H](CCCCN)NC(=O)[C@H](CCC(=O)O)NC(=O)[C@H](CCC(N)=O)NC(=O)[C@H](CCCCN)NC(=O)[C@H](CC(C)C)NC(=O)[C@H](CC(C)C)NC(=O)[C@H](CCCCN)NC(=O)[C@H](CCC(N)=O)NC(=O)[C@H](CCCCNC(=O)COCCOCCNC(=O)COCCOCCNC(=O)CC[C@H](NC(=O)CCCCCCCCCCCCCCCCC(=O)O)C(=O)O)NC(=O)[C@@H](NC(=O)[C@H](CCCCN)NC(=O)[C@@H](NC(=O)[C@@H]1CCCN1C(=O)[C@@H](NC(=O)[C@H](CC(=O)O)NC(=O)[C@H](CC(C)C)NC(=O)[C@H](CO)NC(=O)[C@H](CC(C)C)NC(=O)[C@@H](NC(=O)[C@@H](N)Cc1ccccc1)[C@@H](C)O)C(C)C)[C@@H](C)O)[C@@H](C)CC)[C@@H](C)O)C(=O)N[C@@H](CC(C)C)C(=O)N[C@@H](CCC(=O)O)C(=O)N[C@@H](CCC(N)=O)C(=O)N[C@H](C(N)=O)C(C)C [compound 34] (H-FTLSLDVPTKIK([AEEA-AEEA-γGlu-C18 diacid])QKLLKQEKQKKQRQKAKTNKQILEQV-NH2; N-terminus assumed)
2,1.6,CC[C@H](C)[C@H](N)C(=O)N[C@H](C(=O)N[C@@H](CC(C)C)C(=O)N[C@@H](CO)C(=O)N[C@@H](CC(C)C)C(=O)N[C@@H](CC(=O)O)C(=O)N[C@H](C(=O)N1CCC[C@H]1C(=O)N[C@H](C(=O)N[C@@H](CCCCN)C(=O)N[C@@H](CC(C)C)C(=O)N[C@@H](CCCCNC(=O)COCCOCCNC(=O)COCCOCCNC(=O)CC[C@H](NC(=O)CCCCCCCCCCCCCCCCC(=O)O)C(=O)O)C(=O)N[C@@H](CCC(N)=O)C(=O)N[C@@H](CCCCN)C(=O)N[C@@H](CC(C)C)C(=O)N[C@@H](CC(C)C)C(=O)N[C@@H](CCCCN)C(=O)N[C@@H](CCC(N)=O)C(=O)N[C@@H](CCC(=O)O)C(=O)N[C@@H](CCCNC(=N)N)C(=O)N[C@@H](CCC(N)=O)C(=O)N[C@@H](CCCNC(=N)N)C(=O)N[C@@H](CCCCN)C(=O)N[C@@H](CCC(=O)O)C(=O)N[C@@H](CCCNC(=N)N)C(=O)N[C@@H](CCC(N)=O)C(=O)N[C@@H](CCC(N)=O)C(=O)N[C@@H](C)C(=O)N[C@@H](CCC(=O)O)C(=O)N[C@H](C(=O)N[C@@H](CC(N)=O)C(=O)N[C@@H](CCCCN)C(=O)N[C@@H](CCCNC(=N)N)C(=O)N[C@H](C(=O)N[C@@H](CC(C)C)C(=O)N[C@@H](CCC(=O)O)C(=O)N[C@@H](CCCNC(=N)N)C(=O)N[C@H](C(N)=O)C(C)C)[C@@H](C)CC)[C@@H](C)O)[C@@H](C)O)C(C)C)C(C)C [compound 37] (H-IVLSLDVPTKLK([AEEA-AEEA-γGlu-C18 diacid])QKLLKQERQRKERQQAETNKRILERV-NH2; N-terminus assumed)
